US20230015949A1, “NEISSERIA TREATMENT USING CANNABINOIDS” (priority 2019, published 2023)
In brackets after ≈: the same amount, converted by molar mass. Entries after “also recorded” stand apart in the source; their conditions may differ. Read-outs that look alike come from different tables or passages of the source.

Legend:
Neisseria gonorrhoeae = experiment: Broth microdilution MIC assay, 30 isolates (Example 2); assay type: cell-based
Description: In this study, the in vitro spectrum of activity of CBD was determined against 30 isolates comprised of reference strains from the WHO, isolates from the CDC antibiotic resistance bank, and clinical isolates from the Micromyx (MMX) repository, with different resistance phenotypes. Assays were conducted following guidelines recommended by the Clinical and Laboratory Standards Institute (CLSI; 1, 2) with the exception that broth microdilution was used instead of agar dilution.
Stock solutions of all compounds were prepared on the day of testing using solvents recommended by CLSI. Stock solutions of all compounds were made at 101× the final testing concentration. CBD was supplied by Cerilliant (Round Rock, Tex.) as a 1 mg/mL methanolic solution which was stored at −20° C. after receipt. Prior to testing, using a 5 mL aliquot of the CBD methanolic solution, the methanol was dried off and the residual CBD was resuspended in 774 μL DMSO resulting in a 6.464 mg/mL solution.
The test organisms evaluated in this study consisted of Neisseria gonorrhoeae isolates from the Micromyx repository and reference isolates from the American Type Culture Collection (ATCC; Manassas, Va.), Centers for Disease Control and Prevention (CDC; Atlanta, Ga.) or the National Collection of Type Cultures (NCTC; Public Health England, Salisbury, UK). Upon initial receipt at Micromyx, the organisms were sub-cultured onto an appropriate agar medium.
Following incubation, colonies were harvested from these plates and cell suspensions prepared and frozen at −80° C. with a cryoprotectant. Prior to testing, N. gonorrhoeae isolates were streaked onto Chocolate Agar [Becton Dickinson, (BD), Sparks, Md.; Lot No. 922807]; Staphylococcus aureus ATCC 29213 tested for quality control (QC) purposes was streaked onto Trypticase Soy Agar with 5% Sheep Blood (TSA II; BD; Lot No. 9219399).
For N. gonorrhoeae, a modified medium described by the ATCC as capable of supporting the growth of N. gonorrhoeae (Neisseria peptone medium) was used for the broth microdilution MIC assay. This medium contained 15 g Oxoid Special Peptone (Lot No. 1280296; Oxoid, Hampshire, UK), 1 g corn starch (Lot No. AD-13344-14; Ward's Science; Rochester, N.Y.), 5 g NaCl (Lot No. 57897; VWR, Radnor, Pa.), 4 g K2HPO4 (Lot No. SLBT7061; Sigma), and 1 g KH2PO4 (Lot No. SLBC1921V; Sigma). After autoclaving, the medium was centrifuged at 5,000×g for 10 min, the supernatant was passed through a 0.45 μm filter, and IsoVitaleX supplement (Lot No. 8323954; BD) was added at 1% (v/v).
MIC values were determined using a broth microdilution procedure described by CLSI (1, 2). Automated liquid handlers (Multidrop 384, Labsystems, Helsinki, Finland; Biomek 2000 and Biomek FX, Beckman Coulter, Fullerton Calif.) were used to conduct serial dilutions and liquid transfers.
To prepare the drug mother plates, which would provide the serial drug dilutions for the replicate daughter plates, the wells of columns 2 through 12 of standard 96-well microdilution plates (Costar 3795) were filled with 150 μl of the designated diluent for each row of drug. The test articles and comparator compounds (300 μl at 100× the highest concentration to be tested) were dispensed into the appropriate wells in column 1. The Biomek 2000 was then used to make 2-fold serial dilutions in the mother plates from column 1 through column 11. The wells of column 12 contained no drug and served as the organism growth control wells for the assay.
The daughter plates were loaded with 190 μL per well of the appropriate test medium for the tested organism using the Multidrop 384. The daughter plates were completed on the Biomek FX instrument which transferred 2 μL of drug solution from each well of a mother plate to the corresponding well of each daughter plate in a single step. Daughter plates for the testing of anaerobes were allowed to pre-reduce in the Bactron II anaerobe chamber for 2 hr prior to inoculation.

[1] = test system: Staphylococcus aureus ATCC 29213; experiment: Broth microdilution MIC assay, quality control strain (Example 2); assay type: cell-based; details: ATCC29213, S. aureus ATCC 29213 (QC), CAMHB
Outline: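 CLSI broth microdilution in cation-adjusted Mueller Hinton broth, 2-fold serial drug dilutions, inoculum about 5×10^5 CFU/mL. Plates incubated 16 to 20 hr at 35° C in ambient air. MIC is the lowest concentration inhibiting visible growth.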

[2] = 30 isolates of N. gonorrhoeae, broth microdilution, MIC distribution
[3] = 30 isolates, broth dilution assay, MIC distribution (Table 6)

## C=C(C)C1CCC(C)=CC1c1c(O)cc(CCCCC)cc1O (stereo not drawn) [CBD, 2-[3-methyl-6-(1-methylethenyl)-2-cyclohexen-1-yl]-5-pentyl-1,3-benzenediol]
Neisseria gonorrhoeae; 30 isolates of N. gonorrhoeae with different resistance phenotypes
  Effect of the resistance phenotype of the isolate on activity: not affected by the resistance phenotype of the isolate; also recorded: independent of the resistance phenotype of the tested isolate
Neisseria gonorrhoeae; [2]
  Number of isolates at MIC value 0.015 μg/mL: 0
  Number of isolates at MIC value 0.03 μg/mL: 0
  Number of isolates at MIC value 0.06 μg/mL: 0
  Number of isolates at MIC value 0.5 μg/mL: 3
  Number of isolates at MIC value 1 μg/mL: 10
  Number of isolates at MIC value 2 μg/mL: 15
  Number of isolates at MIC value 4 μg/mL: 0
  Number of isolates at MIC value 8 μg/mL: 1
  Number of isolates at MIC value >8 μg/mL: 1
  Number of isolates at MIC value >32 μg/mL: 1
  Number of isolates at MIC value […]: 0
Neisseria gonorrhoeae; [3]
  Number of isolates at MIC 0.08 μg mL^−1: 0
  Number of isolates at MIC ≤0.004 μg mL^−1: 0
Neisseria gonorrhoeae; Neisseria gonorrhoeae, ATCC49226, N. gonorrhoeae ATCC 49226 (QC), broth microdilution, read-out: MIC
  MIC: 2 mg/L (≈ 6.36 µM)
Neisseria gonorrhoeae; Neisseria gonorrhoeae, N. gonorrhoeae CDC 0165 (CIP-R, AZI MIC 1), broth microdilution, read-out: MIC
  MIC: 8 mg/L (≈ 25.4 µM)
Neisseria gonorrhoeae; Neisseria gonorrhoeae, N. gonorrhoeae CDC 0166 (CIP-R, AZI MIC 1), broth microdilution, read-out: MIC
  MIC: 2 mg/L (≈ 6.36 µM)
Neisseria gonorrhoeae; Neisseria gonorrhoeae, N. gonorrhoeae CDC 0167 (CIP-S, AZI MIC 8), broth microdilution, read-out: MIC
  MIC: 1 mg/L (≈ 3.18 µM)
Neisseria gonorrhoeae; Neisseria gonorrhoeae, N. gonorrhoeae CDC 0172 (CIP-R, AZI MIC 0.5), broth microdilution, read-out: MIC
  MIC: 2 mg/L (≈ 6.36 µM)
Neisseria gonorrhoeae; Neisseria gonorrhoeae, N. gonorrhoeae CDC 0175 (CIP-S, AZI MIC 16), broth microdilution, read-out: MIC
  MIC: 2 mg/L (≈ 6.36 µM)
Neisseria gonorrhoeae; Neisseria gonorrhoeae, N. gonorrhoeae CDC 0177 (CIP-S, AZI MIC 2), broth microdilution, read-out: MIC
  MIC: 2 mg/L (≈ 6.36 µM)
Neisseria gonorrhoeae; Neisseria gonorrhoeae, N. gonorrhoeae CDC 0181 (CIP-S, AZI MIC 256), broth microdilution, read-out: MIC
  MIC: 1 mg/L (≈ 3.18 µM)
Neisseria gonorrhoeae; Neisseria gonorrhoeae, N. gonorrhoeae CDC 0194 (CRO-NS, CIP-S, AZI MIC 0.5), broth microdilution, read-out: MIC
  MIC: 2 mg/L (≈ 6.36 µM)
Neisseria gonorrhoeae; Neisseria gonorrhoeae, N. gonorrhoeae MMX 6921 (CIP-R), broth microdilution, read-out: MIC
  MIC: 1 mg/L (≈ 3.18 µM)
Neisseria gonorrhoeae; Neisseria gonorrhoeae, N. gonorrhoeae MMX 6938 (CIP-S), broth microdilution, read-out: MIC
  MIC: 2 mg/L (≈ 6.36 µM)
Neisseria gonorrhoeae; Neisseria gonorrhoeae, N. gonorrhoeae MMX 10409 (CIP-R), broth microdilution, read-out: MIC
  MIC: 2 mg/L (≈ 6.36 µM)
Neisseria gonorrhoeae; Neisseria gonorrhoeae, N. gonorrhoeae MMX 10410 (CIP-S), broth microdilution, read-out: MIC
  MIC: 2 mg/L (≈ 6.36 µM)
Neisseria gonorrhoeae; Neisseria gonorrhoeae, N. gonorrhoeae MMX 10447 (CIP-S), broth microdilution, read-out: MIC
  MIC: 1 mg/L (≈ 3.18 µM)
Neisseria gonorrhoeae; Neisseria gonorrhoeae, N. gonorrhoeae MMX 10450 (CIP-S), broth microdilution, read-out: MIC
  MIC: 0.5 mg/L (≈ 1.59 µM)
Neisseria gonorrhoeae; Neisseria gonorrhoeae, N. gonorrhoeae MMX 10452 (CIP-R), broth microdilution, read-out: MIC
  MIC: 2 mg/L (≈ 6.36 µM)
Neisseria gonorrhoeae; Neisseria gonorrhoeae, N. gonorrhoeae MMX 10454 (CIP-R), broth microdilution, read-out: MIC
  MIC: 1 mg/L (≈ 3.18 µM)
Neisseria gonorrhoeae; Neisseria gonorrhoeae, NCTC13477, N. gonorrhoeae NCTC 13477 (WHO F; CIP-S, AZI MIC […]), broth microdilution, read-out: MIC
  MIC: 0.5 mg/L (≈ 1.59 µM)
Neisseria gonorrhoeae; Neisseria gonorrhoeae, NCTC13478, N. gonorrhoeae NCTC 13478 (WHO G; CIP-I, AZI MIC […]), broth microdilution, read-out: MIC
  MIC: 2 mg/L (≈ 6.36 µM)
Neisseria gonorrhoeae; Neisseria gonorrhoeae, NCTC13479, N. gonorrhoeae NCTC 13479 (WHO K; CIP-R, AZI MIC […]), broth microdilution, read-out: MIC
  MIC: 2 mg/L (≈ 6.36 µM)
Neisseria gonorrhoeae; Neisseria gonorrhoeae, NCTC13480, N. gonorrhoeae NCTC 13480 (WHO L; CIP-R, AZI MIC 0.5), broth microdilution, read-out: MIC
  MIC: 0.5 mg/L (≈ 1.59 µM)
Neisseria gonorrhoeae; Neisseria gonorrhoeae, NCTC13481, N. gonorrhoeae NCTC 13481 (WHO M; CIP-R, AZI MIC […]), broth microdilution, read-out: MIC
  MIC: 1 mg/L (≈ 3.18 µM)
Neisseria gonorrhoeae; Neisseria gonorrhoeae, NCTC13482, N. gonorrhoeae NCTC 13482 (WHO N; CIP-R, AZI MIC […]), broth microdilution, read-out: MIC
  MIC: 2 mg/L (≈ 6.36 µM)
Neisseria gonorrhoeae; Neisseria gonorrhoeae, NCTC13483, N. gonorrhoeae NCTC 13483 (WHO O; CIP-S, AZI MIC […]), broth microdilution, read-out: MIC
  MIC: 2 mg/L (≈ 6.36 µM)
Neisseria gonorrhoeae; Neisseria gonorrhoeae, NCTC13484, N. gonorrhoeae NCTC 13484 (WHO P; CIP-S, AZI MIC 4), broth microdilution, read-out: MIC
  MIC: > 32 mg/L
Neisseria gonorrhoeae; Neisseria gonorrhoeae, NCTC13817, N. gonorrhoeae NCTC 13817 (WHO U; CIP-S, AZI MIC 4), broth microdilution, read-out: MIC
  MIC: 1 mg/L (≈ 3.18 µM)
Neisseria gonorrhoeae; Neisseria gonorrhoeae, NCTC13818, N. gonorrhoeae NCTC 13818 (WHO V; CIP-R, AZI MIC >256), broth microdilution, read-out: MIC
  MIC: 1 mg/L (≈ 3.18 µM)
Neisseria gonorrhoeae; Neisseria gonorrhoeae, NCTC13819, N. gonorrhoeae NCTC 13819 (WHO W; CIP-R, AZI MIC 0.5), broth microdilution, read-out: MIC
  MIC: 1 mg/L (≈ 3.18 µM)
Neisseria gonorrhoeae; Neisseria gonorrhoeae, NCTC13820, N. gonorrhoeae NCTC 13820 (WHO X; CRO-NS, CIP-R, AZI MIC 0.5), broth microdilution, read-out: MIC
  MIC: 2 mg/L (≈ 6.36 µM)
Neisseria gonorrhoeae; Neisseria gonorrhoeae, NCTC13821, N. gonorrhoeae NCTC 13821 (WHO Y; CIP-R, AZI MIC 1), broth microdilution, read-out: MIC
  MIC: 1 mg/L (≈ 3.18 µM)
Neisseria gonorrhoeae; Neisseria gonorrhoeae, 30 isolates of N. gonorrhoeae, broth microdilution, read-out: MIC50
  MIC50: 2 mg/L (≈ 6.36 µM)
Neisseria gonorrhoeae; Neisseria gonorrhoeae, 30 isolates of N. gonorrhoeae, broth microdilution, read-out: MIC90
  MIC90: 2 mg/L (≈ 6.36 µM)
Neisseria gonorrhoeae; Neisseria gonorrhoeae, 30 isolates of N. gonorrhoeae, broth microdilution, read-out: MIC Mode
  MIC: 2 mg/L (≈ 6.36 µM)
[1]
  MIC: 0.5 mg/L (≈ 1.59 µM)
